How the values were obtained:
Assay type in all cases: biochemical
CDK5/p35 = target: T1, CDK5/p35 (Homo sapiens, UniProt Q00535); experiment: Invitrogen Select Screen kinase assay; conditions: read-out: CCT068127 Mean IC50 (μmol.L^-1) ± SE; mean of two determinations
T1 construct: recombinant complex, Invitrogen Select Screen service
Description: Invitrogen Select Screen kinase assay on CDK5/p35

PLK1 = target: T2, PLK1 (Homo sapiens, UniProt P53350); experiment: in vitro kinase assay
T2 construct: recombinant
T2 sequence (P53350 2-603): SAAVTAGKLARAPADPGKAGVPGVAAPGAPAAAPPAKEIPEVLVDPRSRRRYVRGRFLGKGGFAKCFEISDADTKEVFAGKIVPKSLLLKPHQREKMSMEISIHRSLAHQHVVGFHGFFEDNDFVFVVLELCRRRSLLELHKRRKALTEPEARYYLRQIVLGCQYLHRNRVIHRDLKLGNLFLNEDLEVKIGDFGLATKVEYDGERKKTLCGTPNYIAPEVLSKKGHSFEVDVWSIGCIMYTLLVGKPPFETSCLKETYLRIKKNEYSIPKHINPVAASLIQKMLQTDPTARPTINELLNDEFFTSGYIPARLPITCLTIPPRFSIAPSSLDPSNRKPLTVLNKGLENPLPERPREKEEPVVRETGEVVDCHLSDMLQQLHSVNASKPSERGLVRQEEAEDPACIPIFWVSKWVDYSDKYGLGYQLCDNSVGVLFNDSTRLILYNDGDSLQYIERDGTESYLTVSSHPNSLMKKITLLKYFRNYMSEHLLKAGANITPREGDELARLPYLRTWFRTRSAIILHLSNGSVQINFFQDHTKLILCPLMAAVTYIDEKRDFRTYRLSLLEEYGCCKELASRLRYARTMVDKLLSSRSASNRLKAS
Description: in vitro kinase assay on PLK1

LCK = target: T3, LCK (Homo sapiens, UniProt P06239); experiment: in vitro kinase assay
T3 construct: recombinant
T3 sequence (P06239 2-509): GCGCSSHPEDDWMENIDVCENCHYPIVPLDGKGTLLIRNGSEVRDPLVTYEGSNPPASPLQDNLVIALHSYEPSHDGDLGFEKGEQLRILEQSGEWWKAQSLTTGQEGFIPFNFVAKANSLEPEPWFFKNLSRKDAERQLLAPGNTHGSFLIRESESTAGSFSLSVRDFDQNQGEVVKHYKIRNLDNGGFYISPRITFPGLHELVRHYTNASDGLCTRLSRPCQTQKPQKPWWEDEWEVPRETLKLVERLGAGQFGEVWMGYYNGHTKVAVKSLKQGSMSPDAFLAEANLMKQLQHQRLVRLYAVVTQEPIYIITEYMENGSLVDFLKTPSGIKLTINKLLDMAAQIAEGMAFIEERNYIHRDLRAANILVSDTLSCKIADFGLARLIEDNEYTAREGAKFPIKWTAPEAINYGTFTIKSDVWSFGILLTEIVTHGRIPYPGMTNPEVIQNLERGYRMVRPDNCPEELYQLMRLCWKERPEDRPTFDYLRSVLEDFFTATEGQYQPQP
Description: in vitro kinase assay on LCK

PDGFB = target: T4, PDGFB (Homo sapiens, UniProt P09619); experiment: in vitro kinase assay
T4 construct: gene PDGFRB; recombinant kinase; printed PDGFB, must be the receptor kinase PDGFR beta
T4 sequence (P09619 33-1106): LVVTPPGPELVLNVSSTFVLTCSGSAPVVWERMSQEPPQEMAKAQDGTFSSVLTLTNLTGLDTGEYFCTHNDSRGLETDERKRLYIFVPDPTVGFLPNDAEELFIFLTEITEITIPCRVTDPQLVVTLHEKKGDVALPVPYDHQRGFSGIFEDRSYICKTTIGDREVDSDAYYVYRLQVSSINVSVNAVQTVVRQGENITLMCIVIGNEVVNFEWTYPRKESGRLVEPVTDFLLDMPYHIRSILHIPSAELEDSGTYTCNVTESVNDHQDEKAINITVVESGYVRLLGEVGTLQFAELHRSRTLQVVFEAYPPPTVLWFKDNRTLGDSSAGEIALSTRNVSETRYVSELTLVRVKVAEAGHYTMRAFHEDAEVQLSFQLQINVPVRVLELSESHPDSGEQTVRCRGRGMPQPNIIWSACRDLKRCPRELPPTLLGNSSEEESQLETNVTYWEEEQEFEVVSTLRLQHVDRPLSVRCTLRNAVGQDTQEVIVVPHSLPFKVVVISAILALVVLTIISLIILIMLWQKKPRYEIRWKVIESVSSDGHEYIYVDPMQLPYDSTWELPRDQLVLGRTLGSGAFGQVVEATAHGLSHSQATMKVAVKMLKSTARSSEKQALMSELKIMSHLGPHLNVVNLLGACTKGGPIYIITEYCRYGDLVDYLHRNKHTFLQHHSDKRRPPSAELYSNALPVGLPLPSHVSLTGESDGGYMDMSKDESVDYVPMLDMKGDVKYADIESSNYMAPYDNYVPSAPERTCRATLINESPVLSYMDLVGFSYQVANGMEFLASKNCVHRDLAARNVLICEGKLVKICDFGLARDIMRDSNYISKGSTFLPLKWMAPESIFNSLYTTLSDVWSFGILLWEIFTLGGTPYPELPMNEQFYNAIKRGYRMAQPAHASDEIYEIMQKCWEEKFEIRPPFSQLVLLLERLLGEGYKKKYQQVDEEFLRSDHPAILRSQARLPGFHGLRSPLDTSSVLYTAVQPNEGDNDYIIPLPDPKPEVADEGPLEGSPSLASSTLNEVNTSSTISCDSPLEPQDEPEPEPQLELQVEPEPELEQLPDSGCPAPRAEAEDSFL
Description: in vitro kinase assay on PDGFB

AURKA = target: T5, AURKA (Homo sapiens, UniProt O14965); experiment: in vitro kinase assay
T5 construct: recombinant
T5 sequence (O14965 1-403): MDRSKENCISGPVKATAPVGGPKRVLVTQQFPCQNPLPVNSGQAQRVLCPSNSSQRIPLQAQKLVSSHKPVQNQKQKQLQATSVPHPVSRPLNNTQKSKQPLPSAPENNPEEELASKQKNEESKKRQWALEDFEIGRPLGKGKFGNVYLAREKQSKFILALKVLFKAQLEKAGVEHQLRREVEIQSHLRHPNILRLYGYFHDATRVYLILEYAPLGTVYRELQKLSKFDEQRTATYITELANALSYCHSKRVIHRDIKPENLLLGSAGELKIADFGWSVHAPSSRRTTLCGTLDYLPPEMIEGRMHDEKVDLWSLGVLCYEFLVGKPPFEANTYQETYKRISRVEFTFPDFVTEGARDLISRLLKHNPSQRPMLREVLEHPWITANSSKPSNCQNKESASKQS
Description: in vitro kinase assay on AURKA

CDK1/B (CDK1/cyclin B) = target: T6, CDK1/B (CDK1/cyclin B) (Homo sapiens, UniProt P06493); experiment: in vitro kinase assay; conditions: read-out: CCT068127 Mean IC50 (μmol.L^-1) ± SE; mean of three independent repeats
T6 construct: recombinant human kinase complex; with G2/mitotic-specific cyclin-B1
T6 sequence (P06493 whole entry): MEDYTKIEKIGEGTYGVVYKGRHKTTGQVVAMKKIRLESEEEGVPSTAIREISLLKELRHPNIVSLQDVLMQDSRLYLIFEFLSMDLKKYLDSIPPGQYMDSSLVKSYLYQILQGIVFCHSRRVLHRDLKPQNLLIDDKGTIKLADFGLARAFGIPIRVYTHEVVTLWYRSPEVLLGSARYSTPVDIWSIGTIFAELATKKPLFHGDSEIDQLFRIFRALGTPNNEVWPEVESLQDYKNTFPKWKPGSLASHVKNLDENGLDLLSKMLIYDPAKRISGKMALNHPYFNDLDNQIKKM
T6 sequence (P14635 whole entry partner): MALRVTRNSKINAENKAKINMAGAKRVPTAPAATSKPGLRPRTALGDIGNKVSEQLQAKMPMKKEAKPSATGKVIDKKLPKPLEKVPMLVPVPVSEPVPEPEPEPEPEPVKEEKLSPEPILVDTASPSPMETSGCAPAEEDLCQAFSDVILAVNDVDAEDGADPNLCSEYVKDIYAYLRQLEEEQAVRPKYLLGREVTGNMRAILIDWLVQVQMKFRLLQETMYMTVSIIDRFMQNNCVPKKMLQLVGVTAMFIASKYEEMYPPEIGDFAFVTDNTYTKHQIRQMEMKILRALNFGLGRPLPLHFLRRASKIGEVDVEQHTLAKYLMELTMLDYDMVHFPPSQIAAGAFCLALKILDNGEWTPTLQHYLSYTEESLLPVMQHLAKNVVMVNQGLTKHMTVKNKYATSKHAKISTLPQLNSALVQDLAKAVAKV
Description: in vitro kinase assay on CDK1/B (CDK1/cyclin B)

FLT3 = target: T7, FLT3 (Homo sapiens, UniProt P36888); experiment: in vitro kinase assay
T7 construct: recombinant
T7 sequence (P36888 27-993): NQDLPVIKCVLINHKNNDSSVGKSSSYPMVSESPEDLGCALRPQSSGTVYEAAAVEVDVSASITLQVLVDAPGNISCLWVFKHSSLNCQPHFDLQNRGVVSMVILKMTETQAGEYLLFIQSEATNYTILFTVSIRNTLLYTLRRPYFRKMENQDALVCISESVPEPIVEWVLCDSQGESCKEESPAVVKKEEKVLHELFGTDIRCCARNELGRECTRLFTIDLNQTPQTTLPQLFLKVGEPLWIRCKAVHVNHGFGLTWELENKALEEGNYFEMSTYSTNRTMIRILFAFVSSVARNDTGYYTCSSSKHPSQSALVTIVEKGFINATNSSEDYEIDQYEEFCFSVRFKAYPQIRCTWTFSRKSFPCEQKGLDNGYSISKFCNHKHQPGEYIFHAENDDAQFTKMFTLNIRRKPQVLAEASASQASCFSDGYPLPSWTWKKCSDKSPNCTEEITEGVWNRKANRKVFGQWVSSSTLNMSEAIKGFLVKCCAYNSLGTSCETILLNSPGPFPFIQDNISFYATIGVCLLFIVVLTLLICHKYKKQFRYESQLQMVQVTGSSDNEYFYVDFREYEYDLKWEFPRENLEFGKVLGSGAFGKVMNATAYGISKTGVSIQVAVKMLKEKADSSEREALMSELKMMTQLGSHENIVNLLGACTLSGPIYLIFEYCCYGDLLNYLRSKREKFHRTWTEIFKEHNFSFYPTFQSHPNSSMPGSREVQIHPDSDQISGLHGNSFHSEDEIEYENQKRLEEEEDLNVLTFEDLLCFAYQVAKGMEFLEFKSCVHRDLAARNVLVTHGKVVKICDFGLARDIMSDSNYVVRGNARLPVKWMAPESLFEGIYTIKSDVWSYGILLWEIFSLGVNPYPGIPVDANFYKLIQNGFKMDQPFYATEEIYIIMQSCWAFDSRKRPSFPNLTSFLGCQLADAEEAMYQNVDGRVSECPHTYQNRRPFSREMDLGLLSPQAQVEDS
Description: in vitro kinase assay on FLT3

ERK2 = target: T8, ERK2 (Homo sapiens, UniProt P28482); experiment: in vitro kinase assay
T8 construct: gene MAPK1; recombinant
T8 sequence (P28482 2-360): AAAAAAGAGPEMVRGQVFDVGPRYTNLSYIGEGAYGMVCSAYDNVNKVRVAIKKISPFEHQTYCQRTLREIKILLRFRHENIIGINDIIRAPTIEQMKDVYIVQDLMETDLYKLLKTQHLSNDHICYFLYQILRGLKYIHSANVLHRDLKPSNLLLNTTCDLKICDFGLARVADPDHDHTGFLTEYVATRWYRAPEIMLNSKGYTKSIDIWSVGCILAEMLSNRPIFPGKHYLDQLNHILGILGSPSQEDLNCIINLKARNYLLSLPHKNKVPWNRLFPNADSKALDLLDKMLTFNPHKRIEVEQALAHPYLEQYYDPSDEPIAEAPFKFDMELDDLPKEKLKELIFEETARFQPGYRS
Description: in vitro kinase assay on ERK2

ABL = target: T9, ABL (Homo sapiens, UniProt P00519); experiment: in vitro kinase assay
T9 construct: gene ABL1; recombinant
Description: in vitro kinase assay on ABL

CDK6/D3 = target: T10, CDK6/D3 (Homo sapiens, UniProt Q00534); experiment: in vitro kinase assay; conditions: read-out: CCT068127 Mean IC50 (μmol.L^-1) ± SE; mean of three independent repeats
T10 construct: recombinant human kinase complex; with G1/S-specific cyclin-D3
Description: in vitro kinase assay on CDK6/D3

SAP2KA = target: T11, SAP2KA (Homo sapiens, UniProt Q16539); experiment: in vitro kinase assay
T11 construct: gene MAPK14; recombinant; printed SAP2KA, read as SAPK2A
T11 sequence (Q16539 2-360): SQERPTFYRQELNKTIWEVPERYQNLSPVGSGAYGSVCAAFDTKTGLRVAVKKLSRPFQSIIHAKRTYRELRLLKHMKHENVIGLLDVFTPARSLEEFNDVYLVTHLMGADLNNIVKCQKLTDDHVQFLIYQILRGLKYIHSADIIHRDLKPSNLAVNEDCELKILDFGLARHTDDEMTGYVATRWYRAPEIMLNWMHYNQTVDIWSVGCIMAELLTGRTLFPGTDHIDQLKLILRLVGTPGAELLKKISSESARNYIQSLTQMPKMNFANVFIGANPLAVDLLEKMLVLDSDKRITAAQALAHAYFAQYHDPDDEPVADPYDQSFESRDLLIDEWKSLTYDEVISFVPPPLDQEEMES
Description: in vitro kinase assay on SAP2KA

SRC = target: T12, SRC (Homo sapiens, UniProt P12931); experiment: in vitro kinase assay
T12 construct: recombinant
T12 sequence (P12931 2-536): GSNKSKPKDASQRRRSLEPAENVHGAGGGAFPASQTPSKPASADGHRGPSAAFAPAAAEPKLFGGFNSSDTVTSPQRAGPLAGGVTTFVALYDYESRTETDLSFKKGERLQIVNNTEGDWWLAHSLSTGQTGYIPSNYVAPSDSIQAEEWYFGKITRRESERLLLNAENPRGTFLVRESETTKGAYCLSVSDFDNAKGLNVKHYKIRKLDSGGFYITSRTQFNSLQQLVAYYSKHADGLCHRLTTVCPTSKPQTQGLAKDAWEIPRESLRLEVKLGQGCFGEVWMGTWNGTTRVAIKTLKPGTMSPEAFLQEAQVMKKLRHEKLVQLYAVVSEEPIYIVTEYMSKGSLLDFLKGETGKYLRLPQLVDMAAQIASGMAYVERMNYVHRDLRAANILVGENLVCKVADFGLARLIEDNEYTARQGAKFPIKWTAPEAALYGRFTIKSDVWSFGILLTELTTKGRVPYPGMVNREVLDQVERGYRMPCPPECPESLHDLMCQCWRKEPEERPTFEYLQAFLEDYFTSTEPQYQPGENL
Description: in vitro kinase assay on SRC

T1 sequence (Q00535 whole entry): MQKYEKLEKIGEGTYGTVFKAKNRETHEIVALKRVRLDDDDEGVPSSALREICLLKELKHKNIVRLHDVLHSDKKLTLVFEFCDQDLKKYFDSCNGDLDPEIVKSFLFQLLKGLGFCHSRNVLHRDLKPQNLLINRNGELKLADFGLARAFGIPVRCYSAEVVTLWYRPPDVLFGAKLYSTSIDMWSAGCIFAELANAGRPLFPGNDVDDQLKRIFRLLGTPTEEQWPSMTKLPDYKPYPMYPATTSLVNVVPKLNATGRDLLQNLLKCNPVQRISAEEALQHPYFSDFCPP
T1 sequence (Q15078 2-307 partner): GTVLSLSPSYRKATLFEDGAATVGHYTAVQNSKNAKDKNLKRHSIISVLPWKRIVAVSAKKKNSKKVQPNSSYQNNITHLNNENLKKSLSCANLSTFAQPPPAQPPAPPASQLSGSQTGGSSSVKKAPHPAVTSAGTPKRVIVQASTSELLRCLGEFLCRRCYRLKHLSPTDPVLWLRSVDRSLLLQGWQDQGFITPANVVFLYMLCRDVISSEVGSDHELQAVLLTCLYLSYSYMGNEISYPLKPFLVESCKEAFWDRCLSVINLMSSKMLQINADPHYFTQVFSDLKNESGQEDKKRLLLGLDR

`CC[C@H](Nc1nc(NCc2cccnc2)c2ncn(C(C)C)c2n1)[C@@H](C)O` [CCT068127] was tested, and the IC50 (CDK5/p35) was 0.07 µmol/L, the IC50 (PLK1) was > 10 µM and the IC50 (LCK) was > 10 µM. The IC50 (PDGFB) was > 10 µM, the IC50 (AURKA) was > 10 µM and the IC50 (CDK1/B (CDK1/cyclin B)) was 1.1 ± 0.29 µmol/L. The IC50 (FLT3) was > 10 µM, the IC50 (ERK2) was > 10 µM and the IC50 (ABL) was > 10 µM. The IC50 (CDK6/D3) was 6.2 ± 0.6 µmol/L, the IC50 (SAP2KA) was > 10 µM and the IC50 (SRC) was > 10 µM.

From PMC5830651 (Molecular Oncology, 2018)
